Test results as given in US20140275257A1, “N-ACETYL CYSTEINE COMPOSITIONS IN THE TREATMENT OF SYSTEMIC LUPUS ERYTHEMATOSUS” (Foundation for the State University of New York, priority 2013, published 2014).

Tests used:
DN T cells = experiment: T-cell subset analysis by flow cytometry (DN T cells); assay type: in vivo, human; settings: after 3 months; baseline 6.2±0.5%; p=0.043
Procedure: Unstimulated cells and cells stimulated with CD3/CD28 for 16 h were examined and cell death pathway selection in T cells was measured by concurrent staining with annexin V-Alexa 647 and propidium iodide (PrI) as well as cell type-specific antigens. T-cell subsets were analyzed by staining with antibodies to CD4, CD8, and CD25. B cells were identified by CD 19 staining

mTOR = experiment: CD3/CD28 stimulation-induced mTOR activity in normal PBL pretreated with NAC in vitro; assay type: cell-based, human; settings: pretreatment by NAC in vitro (data not shown)
From the text: Δψm is subject to regulation by an oxidation-reduction equilibrium of ROI, pyridine nucleotides (NADH/NAD+NADPH/NADP) and GSH. (Fernandez, D. and Perl, A. “Metabolic control of T cell activation and death in SLE,” Autoimmun. Rev., 8: 184-189 (2009)). Without being bound by theory, it is believed that NAC can modulate mitochondrial hyperpolarization (MHP), directly, via neutralizing ROI or, indirectly, via sparing NADPH and promoting de novo GSH production. […] NAC-induced MHP occurred with a marked increase in NO production, which is required for mitochondrial biogenesis. (Nagy, G. et al., “Nitric Oxide-Dependent Mitochondrial Biogenesis Generates Ca^2+ Signaling Profile of Lupus T Cells,” J. Immunol., 173: 3676-3683 (2004)). In turn, NO production depends on the availability of NADPH. Without being bound by theory, it is believed that increased NO production can result from sparing of NADPH by NAC. (Fernandez, D. and Perl, A. “Metabolic control of T cell activation and death in SLE,” Autoimmun. Rev., 8: 184-189 (2009)). Without being bound by theory, NAC acts by blocking mTOR, which is a sensor of Δψm and oxidative stress in lupus T cells. (Fernandez, D. R. et al., “Activation of mTOR controls the loss of TCRζ □ in lupus T cells through HRES-1/Rab4-regulated lysosomal degradation,” J. Immunol., 182: 2063-2073 (2009)). […]

[1] = system: idiopathic pulmonary fibrosis patients; settings: "high-dose" oral NAC (1.8 g/day); Demedts et al. (2005); cited from earlier work
[2] = system: GSH in peripheral blood lymphocytes (PBL); experiment: HPLC assay of GSH in peripheral blood lymphocytes (PBL) of SLE patients; assay type: in vivo, human
Procedure: (§1) Reduced glutathione (GSH) was measured by reverse phase ion-exchange HPLC using UV detection at 365 nm, as described in Gergely, P. J. et al., “Mitochondrial hyperpolarization and ATP depletion in patients with systemic lupus erythematosus,” Arth. Rheum., 46: 175-190 (2002); and Hanczko, R. et al., “Prevention of hepatocarcinogenesis and acetaminophen-induced liver failure in transaldolase-deficient mice by N-acetylcysteine,” J. Clin. Invest., 119: 1546-1557 (2009). The disclosures of each of these references are incorporated by reference herein in their entirety.
(§2) GSH was measured in whole blood and peripheral blood lymphocytes (PBL) before (visit 1; 0 h) and after the first NAC/placebo dose (visit 1; 3 h and 6 h) and upon each monthly follow-up visit (visits 2-4: between 9-11 am after having taken the last NAC/placebo capsule 8 pm the night before), and after 1 month wash-out (visit 5). HPLC analysis required ˜0.25 ml of whole blood and 5×10^6 PBL which were obtained from a total of 10 ml of blood collected at each time point.

GSH in whole blood = experiment: HPLC assay of GSH in whole blood of SLE patients; assay type: in vivo, human; settings: after 1 and 2 months of NAC treatment
Procedure: as §1, §2

SLE patients = experiment: SLE Disease Activity Index (SLEDAI) in NAC pilot study; assay type: in vivo, human
From the text: SLEDAI offers an assessment tool for assessing disease activity in SLE. Twenty-four features that are attributed to lupus are listed, with a weighted score given to any one that is present. The more serious manifestations (such as renal, neurologic, and vasculitis) are weighted more than others (such as cutaneous manifestations). The maximum possible score is 105. (Lam, G. K. W. and Petri, M., “Assessment of systemic lupus erthematosus,” Clin. Exp. Rheumatol., 23 (Supp. 39): S120-S132 (2005)).
A complete physical examination of the cardiovascular, respiratory, gastrointestinal, musculoskeletal, neurological systems, skin, head, neck, sinuses, nasal and oral cavities were performed at each visit. SLE disease activity was assessed by using the British Isles Lupus Assessment Group (BILAG) (Isenberg, D. A. et al., “BILAG 2004. Development and initial validation of an updated version of the British Isles Lupus Assessment Group's disease activity index for patients with systemic lupus erythematosus,” Rheumatology 44(7): 902-906 (2005)) and SLE Disease Activity Index (SLEDAI) (Bombardier, C. et al., “Derivation of the SLEDAI. A disease activity index for lupus patients,” Arth. Rheum., 35: 630-640 (1992)). The concurrent use and dosage of prednisone and other medications were documented.
Lupus disease activity was measured by SLEDAI and BILAG and fatigue was evaluated by FAC at baseline (visit 1) as well as monthly during a 3-month intervention (visits 2-4) and after a 1-month washout period (visit 5).
Overall clinical effectiveness of NAC relative to placebo was analyzed with multilevel modeling as implemented in the STATA routine XTMIXED (from StataCorp, College Station, Tex.), with the three nested levels being drug group, subject within drug group and study visit within subject. All models included fixed effects for drug group, study visit and the drug group by study visit interaction along with random intercepts at each design level. […] The reduction in lupus disease activity SLEDAI scores was greater for the NAC than placebo group, as indicated by a significant visit by drug interaction (z=−2.14, p=0.033). The reduction in BILAG scores was also greater for NAC than placebo group. The overall effect was statistically significant as indicated by a significant visit by drug interaction (z=−2.62, p=0.009). Two tailed paired t-test was used to assess the effects of placebo and of each and all NAC doses on clinical indices and biomarkers recorded on visits 2-5 relative to visit 1; p<0.05 was considered significant. Patients and controls were compared with two-tailed unpaired t-test.

## CC(=O)N[C@@H](CS)C(=O)O [NAC, N-acetyl-L-cysteine]
DN T cells
  DN T-cell frequency: 5.3±0.5%
mTOR
  CD3/CD28 stimulation-induced mTOR activity: blocking
[1]
  disease severity in idiopathic pulmonary fibrosis: diminished disease severity
[2]; after 3-month treatment with NAC doses 2 and 3 considered together (visit 4; p=0.027)
  GSH in PBL: increased
[2]; after one month washout, NAC dose 3 or doses 2 and 3 combined
  GSH in PBL: dropped below baseline
[2]; single NAC dose of 1.2 g, after 6 h (p=0.022)
  GSH in PBL: increased
[2]; single NAC dose of 2.4 g, after 3 h (p=0.032) and 6 h (p=0.003)
  GSH in PBL: increased
GSH in whole blood
  GSH in whole blood: increased
SLE patients; Dose 1 group, placebo 2 of 9
  patients with significant improvement (SLEDAI): 3 of 9
SLE patients; Dose 2 group, placebo 2 of 9
  patients with significant improvement (SLEDAI): 4 of 9
SLE patients; Dose 3 group, improvements of SLEDAI of 3 or more, p=0.0406 relative to placebo
  patients with significant improvement (SLEDAI): 5 of 6
SLE patients; NAC dose 1 (1.2 g/day)
  effect on SLE disease activity, SLEDAI: did not influence
SLE patients; NAC doses 2 and 3 combined, visit 2 (1 month), baseline 5.78, p=0.0007
  SLEDAI: 3.6
SLE patients; NAC doses 2 and 3 combined, visit 3 (2 months), baseline 5.78, p=0.0009
  SLEDAI: 4.0
SLE patients; NAC doses 2 and 3 combined, visit 4 (3 months), baseline 5.78, p=0.0030
  SLEDAI: 4.9
SLE patients; NAC doses 2 and 3 combined, visit 5 (after 1 month washout), baseline 5.78, p=0.0046
  SLEDAI: 4.4
SLE patients; all patients treated with NAC, after 1-month (visit 2), baseline 5.3, p=0.0013
  SLEDAI: 3.5
SLE patients; all patients treated with NAC, after 2-month treatment (visit 3), baseline 5.3, p=0.048
  SLEDAI: 3.7
SLE patients; visit by drug interaction, XTMIXED z=−2.14, p=0.033
  reduction in SLEDAI relative to placebo (multilevel modeling): greater in the NAC than placebo group
